These are literature values, as cited in patent US20240390871A1, “Production of encapsulated nanoparticles at high volume fractions” (iCeutica Pty Ltd., priority 2009, published 2024).

For the data set the following is noted: previous animal studies; reducing the size of metaxalone.

Regarding `Cc1cc(C)cc(OCC2CNC(=O)O2)c1` (stereo not shown) [metaxalone], the “rates of absorption and overall bioavailability (as measured by AUC)” value was “much higher rates of absorption and overall bioavailability”.
